# Laboratory results from BindingDB's records for doi:10.1016/j.bmc.2016.06.011 (Florida A&M University, 2016).
# Assays:
# [1] = target: 5-hydroxytryptamine receptor 2A (Homo sapiens, UniProt P28223); assay: Displacement of [3H]Ketanserin from human recombinant 5HT2A receptor incubated for […] by microbeta scintillation counting method
# [2] = target: T1, 5-hydroxytryptamine receptor 2C (Homo sapiens, UniProt P28335); assay: Displacement of [3H]Mesulergine from human recombinant 5HT2C receptor incubated for […] by microbeta scintillation counting method
# T1 sequence (P28335 whole entry): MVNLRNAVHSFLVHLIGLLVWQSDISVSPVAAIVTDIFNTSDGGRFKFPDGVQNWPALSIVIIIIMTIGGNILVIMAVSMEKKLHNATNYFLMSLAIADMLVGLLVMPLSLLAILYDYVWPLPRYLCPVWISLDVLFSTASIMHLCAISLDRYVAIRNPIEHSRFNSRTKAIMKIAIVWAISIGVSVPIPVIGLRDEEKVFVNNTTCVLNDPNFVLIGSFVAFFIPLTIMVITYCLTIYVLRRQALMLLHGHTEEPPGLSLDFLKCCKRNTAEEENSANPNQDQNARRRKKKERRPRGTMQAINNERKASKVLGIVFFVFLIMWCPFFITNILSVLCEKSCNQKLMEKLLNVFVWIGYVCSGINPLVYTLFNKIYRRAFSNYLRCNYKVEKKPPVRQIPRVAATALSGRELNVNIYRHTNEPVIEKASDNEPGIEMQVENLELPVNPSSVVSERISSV
# [3] = target: T2, D(4) dopamine receptor (Homo sapiens, UniProt P21917); assay: Displacement of [3H]N-methylspiperone from human recombinant dopamine D4 receptor incubated for […] by microbeta scintillation counting method
# T2 sequence (P21917 whole entry): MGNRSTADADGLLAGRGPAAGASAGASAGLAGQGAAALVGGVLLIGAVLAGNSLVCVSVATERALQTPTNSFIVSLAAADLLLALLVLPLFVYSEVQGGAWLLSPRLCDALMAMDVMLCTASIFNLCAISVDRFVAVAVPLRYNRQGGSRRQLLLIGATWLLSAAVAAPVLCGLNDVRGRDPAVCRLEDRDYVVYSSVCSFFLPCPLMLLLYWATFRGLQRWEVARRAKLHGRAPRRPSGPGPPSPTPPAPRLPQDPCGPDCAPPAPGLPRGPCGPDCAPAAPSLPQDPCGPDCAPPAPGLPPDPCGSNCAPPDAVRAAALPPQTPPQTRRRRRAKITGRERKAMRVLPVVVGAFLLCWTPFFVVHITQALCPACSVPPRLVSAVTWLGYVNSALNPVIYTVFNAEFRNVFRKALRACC
# 5-hydroxytryptamine receptor 2A, sequence (P28223 whole entry): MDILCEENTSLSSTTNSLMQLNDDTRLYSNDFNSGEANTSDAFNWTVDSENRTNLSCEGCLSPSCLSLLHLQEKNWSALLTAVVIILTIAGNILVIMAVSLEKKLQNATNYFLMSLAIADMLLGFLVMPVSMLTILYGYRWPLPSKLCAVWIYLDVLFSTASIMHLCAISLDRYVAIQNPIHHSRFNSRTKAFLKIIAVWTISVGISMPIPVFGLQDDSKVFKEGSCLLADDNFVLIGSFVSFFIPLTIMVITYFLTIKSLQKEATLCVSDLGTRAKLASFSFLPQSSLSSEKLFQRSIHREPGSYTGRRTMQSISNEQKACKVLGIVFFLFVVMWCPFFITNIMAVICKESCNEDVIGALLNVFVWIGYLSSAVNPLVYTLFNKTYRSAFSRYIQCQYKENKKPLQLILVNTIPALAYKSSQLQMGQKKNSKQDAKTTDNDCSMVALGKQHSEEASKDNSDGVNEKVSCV
Compound,Ki [1] [µM],Ki [2] [µM],Ki [3] [µM]
OC1(c2ccc(Cl)cc2)CC2CCC(C1)N2CCCCc1nc2ccccc2s1 (centres undefined),> 10,4.57,–
O=C(CCCCN1CCC(n2c(=O)[nH]c3cc(Cl)ccc32)CC1)c1nc2ccccc2s1,–,–,1.7
OC1(c2ccc(Cl)cc2)CCN(CCCCc2nc3ccccc3s2)CC1,–,–,0.141
